# Experiments:
# Test in all cases: DSF 100 kinase selectivity screen;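 also: compound tested at 20 µM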
# Format in all cases: binding
# [1] = molecular target: T1, ~100 representative kinases (Homo sapiens, UniProt P49674); settings: Protein CSNK1E; average of three replicates
# T1 construct: Recombinant protein kinase domains with a concentration of 2 μM
# How it was run: (§1)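 Each kinase domain, at 2 μM, is mixed with 20 μM test compound and SYPRO Orange in Hepes (20 mM, pH 7.5) with 500 mM NaCl. Temperature is then raised at 3°C/min and fluorescence-monitored unfolding yields the melting temperature change, ΔTm in degrees Celsius.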
# [2] = molecular target: T2, ~100 representative kinases (Homo sapiens, UniProt Q6PHR2); settings: Protein ULK3; DSF; average of three replicates
# T2 construct: Recombinant protein kinase domains with a concentration of 2 μM
# T2 sequence (Q6PHR2 1-472): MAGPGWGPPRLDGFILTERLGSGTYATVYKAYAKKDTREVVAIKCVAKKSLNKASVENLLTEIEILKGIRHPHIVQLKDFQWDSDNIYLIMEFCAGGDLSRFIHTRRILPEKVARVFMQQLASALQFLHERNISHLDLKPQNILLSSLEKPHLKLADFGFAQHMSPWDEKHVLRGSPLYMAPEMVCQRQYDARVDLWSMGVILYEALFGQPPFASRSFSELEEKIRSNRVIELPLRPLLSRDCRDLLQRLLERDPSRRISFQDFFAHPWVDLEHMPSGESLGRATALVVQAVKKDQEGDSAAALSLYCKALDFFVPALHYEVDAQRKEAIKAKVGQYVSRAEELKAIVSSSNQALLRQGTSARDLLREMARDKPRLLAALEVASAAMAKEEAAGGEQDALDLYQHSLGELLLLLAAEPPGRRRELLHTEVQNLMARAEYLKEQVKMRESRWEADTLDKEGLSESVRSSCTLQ
# How it was run: as §1
# [3] = molecular target: T3, ~100 representative kinases (Homo sapiens, UniProt P55201); settings: Protein BRPF1; average of three replicates
# T3 construct: Recombinant protein kinase domains with a concentration of 2 μM
# T3 sequence (P55201 1-1214): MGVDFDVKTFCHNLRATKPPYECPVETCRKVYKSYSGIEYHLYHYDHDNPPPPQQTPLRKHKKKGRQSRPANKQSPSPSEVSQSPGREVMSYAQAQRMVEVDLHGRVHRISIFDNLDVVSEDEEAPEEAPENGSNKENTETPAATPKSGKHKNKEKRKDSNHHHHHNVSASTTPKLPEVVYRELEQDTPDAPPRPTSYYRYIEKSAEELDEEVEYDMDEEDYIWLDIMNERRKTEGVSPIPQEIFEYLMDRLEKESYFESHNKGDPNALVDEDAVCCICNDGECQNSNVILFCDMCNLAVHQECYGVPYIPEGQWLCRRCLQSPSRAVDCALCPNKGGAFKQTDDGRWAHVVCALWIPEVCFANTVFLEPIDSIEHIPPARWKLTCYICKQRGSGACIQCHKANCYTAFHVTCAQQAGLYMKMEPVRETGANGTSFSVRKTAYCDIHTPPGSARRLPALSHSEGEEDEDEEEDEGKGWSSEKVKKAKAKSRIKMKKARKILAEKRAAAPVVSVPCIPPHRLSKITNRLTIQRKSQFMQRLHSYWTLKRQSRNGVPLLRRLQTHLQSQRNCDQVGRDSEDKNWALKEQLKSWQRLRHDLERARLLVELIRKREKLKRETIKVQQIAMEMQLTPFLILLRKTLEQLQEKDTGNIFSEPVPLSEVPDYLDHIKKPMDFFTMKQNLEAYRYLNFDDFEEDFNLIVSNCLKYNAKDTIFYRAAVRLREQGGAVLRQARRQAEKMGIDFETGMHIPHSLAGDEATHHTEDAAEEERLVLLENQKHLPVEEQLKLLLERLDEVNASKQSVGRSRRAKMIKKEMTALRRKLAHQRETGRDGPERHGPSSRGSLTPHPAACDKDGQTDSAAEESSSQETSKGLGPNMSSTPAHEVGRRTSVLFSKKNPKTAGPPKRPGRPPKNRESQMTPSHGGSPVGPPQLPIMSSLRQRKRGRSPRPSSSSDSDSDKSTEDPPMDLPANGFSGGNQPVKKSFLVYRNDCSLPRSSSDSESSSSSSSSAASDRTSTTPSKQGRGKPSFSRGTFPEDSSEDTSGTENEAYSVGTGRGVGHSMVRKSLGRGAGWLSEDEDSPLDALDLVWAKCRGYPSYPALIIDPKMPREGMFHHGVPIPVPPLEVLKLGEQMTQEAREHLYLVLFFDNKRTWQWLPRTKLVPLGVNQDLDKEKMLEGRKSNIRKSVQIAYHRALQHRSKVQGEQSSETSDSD
# How it was run: as §1
# [4] = molecular target: T4, ~100 representative kinases (Homo sapiens, UniProt P51813); settings: Protein BMX; average of three replicates
# T4 construct: Recombinant protein kinase domains with a concentration of 2 μM
# T4 sequence (P51813 1-675): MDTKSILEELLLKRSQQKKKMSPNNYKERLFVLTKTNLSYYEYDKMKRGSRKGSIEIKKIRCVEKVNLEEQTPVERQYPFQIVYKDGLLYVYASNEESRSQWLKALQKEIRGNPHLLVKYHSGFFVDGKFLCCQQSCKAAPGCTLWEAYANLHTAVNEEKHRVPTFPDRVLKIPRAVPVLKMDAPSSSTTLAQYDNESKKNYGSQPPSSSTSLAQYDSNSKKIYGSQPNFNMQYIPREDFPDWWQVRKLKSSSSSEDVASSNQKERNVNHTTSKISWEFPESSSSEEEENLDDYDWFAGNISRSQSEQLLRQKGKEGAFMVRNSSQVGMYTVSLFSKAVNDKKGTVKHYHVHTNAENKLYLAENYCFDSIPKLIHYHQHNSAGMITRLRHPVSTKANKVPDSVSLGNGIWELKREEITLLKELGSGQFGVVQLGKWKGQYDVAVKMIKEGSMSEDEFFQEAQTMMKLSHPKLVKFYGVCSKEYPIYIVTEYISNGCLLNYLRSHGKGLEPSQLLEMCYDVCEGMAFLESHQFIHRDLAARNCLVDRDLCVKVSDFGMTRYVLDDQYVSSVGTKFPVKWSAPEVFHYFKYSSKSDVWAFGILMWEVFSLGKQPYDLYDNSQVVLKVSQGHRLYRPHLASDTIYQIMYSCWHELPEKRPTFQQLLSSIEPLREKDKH
# How it was run: as §1
# T1 sequence (P49674 whole entry, the tested form may be a part): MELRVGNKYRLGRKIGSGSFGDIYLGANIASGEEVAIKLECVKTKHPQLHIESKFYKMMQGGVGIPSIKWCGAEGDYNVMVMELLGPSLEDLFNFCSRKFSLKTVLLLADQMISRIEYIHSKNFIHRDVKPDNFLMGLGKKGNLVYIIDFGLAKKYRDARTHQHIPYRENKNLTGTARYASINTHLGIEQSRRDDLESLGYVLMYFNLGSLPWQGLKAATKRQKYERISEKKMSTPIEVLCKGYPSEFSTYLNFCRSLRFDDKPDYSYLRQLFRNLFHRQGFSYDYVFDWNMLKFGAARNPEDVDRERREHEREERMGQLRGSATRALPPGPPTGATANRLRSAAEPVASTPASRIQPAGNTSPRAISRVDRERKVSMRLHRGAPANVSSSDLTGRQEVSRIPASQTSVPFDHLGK
dTm [1] [K],dTm [2] [K],dTm [3] [K],dTm [4] [K],SMILES
0.48,7.43,0.08,2.21,Cc1ccc(-n2nc(C(C)(C)C)cc2NC(=O)Nc2cccc(-c3c[nH]c4ncnc(N5CCOCC5)c34)c2)cc1 [Compound 29]
-2.01,0.27,-1.99,-1.99,Cc1ccc(-n2nc(C(C)(C)C)cc2NC(=O)Nc2cccc(-c3c[nH]c4nc(Cl)nc(N5CCOCC5)c34)c2)cc1 [Compound 30]
-1.75,0.92,-0.70,-1.76,CC(=O)N1CCN(c2nc(Cl)nc3[nH]cc(-c4cccc(NC(=O)Nc5cc(C(C)(C)C)nn5-c5ccc(C)cc5)c4)c23)CC1 [Compound 31]
4.43,4.06,-1.63,-0.34,COc1cc(C(=O)N2CCOCC2)c(F)cc1Nc1nc(N(C)C)c2c(Cl)c[nH]c2n1 [Compound 36]
1.77,1.01,-0.21,-0.17,COc1cc(S(C)(=O)=O)ccc1Nc1nc(N(C)C)c2c(Cl)c[nH]c2n1 [Compound 37]

SMILES,dTm [1] [K],dTm [2] [K],dTm [3] [K],dTm [4] [K]
CCSc1nc(NC)c2c(-c3cccc(NC(=O)Nc4cc(C(C)(C)C)nn4-c4ccc(C)cc4)c3)c[nH]c2n1 [Compound 32],-0.41,0.44,-0.60,-0.26
"COc1cc2c(Oc3ccc(NC(=O)C4(C(=O)Nc5ccc(F)cc5)CC4)cc3F)ccnc2cc1OCCCN1CCOCC1 [Foretinib, reference compound]",3.48,14.26,0.26,6.77
"CNC(=O)c1cc(Oc2ccc(NC(=O)Nc3cc(C(C)(C)C)nn3-c3ccc4ncccc4c3)c(F)c2)ccn1 [Rebastinib, reference compound]",0.33,3.80,1.88,7.16

# From PMC12136037, “Type II kinase inhibitors that target Parkinson’s disease–associated LRRK2” (Science Advances, 2025)
